{"source": "PubChem BioAssay AID1845207", "about": "(Molecular Pharmacology Branch, DTP, NCI, 2023)", "test_system": "NCI-H1876 tumor spheroid viability", "assay": "Anticancer human tumor NCI-H1876 cell line growth inhibition;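 for all read-outs here: spheroids exposed to compounds for seven days before the viability read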;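 for viability, T/C: percent of DMSO vehicle control viability so 100% = vehicle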", "conditions": "spheroids with HUVEC and MSC; for viability, T/C: stronger effect = lower value", "from_the_text": "Multicellular complex tumor spheroid response to DNA repair inhibitors in combination with DNA-damaging drugs\nThis study explores the anticancer activities of DNA-damaging drugs and inhibitors of DNA damage repair, both as single agents and in combinations. Complex tumor spheroids comprised of malignant cells, endothelial cells and mesenchymal stem cells served as an in vitro model for human solid tumors. This model system incorporates physiologically relevant features and patient-derived or established malignant cell lines with clinically relevant genetic alterations from many tumor types. Twenty-six patient-derived or established malignant cell lines were evaluated representing sarcoma, melanoma, small cell lung cancer (SCLC), non-small cell lung cancer (NSCLC), as well as bladder, ovarian and pancreatic cancers. The concentration ranges selected for each drug and investigational agent were based upon clinically achievable concentrations if the clinical Cmax of the agent was known.\nCompounds. The drugs and compounds olaparib (NSC753686), talazoparib (NSC767125), berzosertib (NSC777718), elimusertib (NSC800525), nedisertib (NSC802822), VX-984 (NSC792969), AZD-1390 (NSC803789), temozolomide (NSC362856), topotecan (NSC609699), trabectedin (NSC813783), staurosporine (NSC755774), and gemcitabine (NSC613327) were obtained from the National Cancer Institute (NCI) Developmental Therapeutics Program Chemical Repository. The FDA-approved anticancer drug set is available from the Developmental Therapeutics Program at https://dtp.cancer.gov/organization/dscb/obtaining/available_plates.htm. […] The stock solutions were prepared in dimethyl sulfoxide (DMSO, Sigma-Aldrich, St. Louis, MO, cat. D2650) at 400-fold the tested concentration and stored at -70 degrees C. Prior to their use, the stock solutions were diluted in fresh medium and the final DMSO concentration in the assay was 0.25% (v/v). All drugs and investigational agents were tested over a range starting from a high concentration at or near the clinical Cmax and decreasing in half-log increments. If the clinical Cmax for an agent had not been determined, the highest concentration tested was 10 microM.\nCell Lines. The patient-derived cancer cell (PDC) lines: 156681-154-R-J1-PDC, 283228-195-R-J1-PDC, 287954-098-R-J1-PDC, 292921-168-R-J2-PDC, 349418-098-R-PDC, 425362-245-T-J1-PDC, 556581-035-R-J1-PDC, and BL0293-F563-PDC were received from the NCI Patient-Derived Models Repository (PDMR, https://pdmr.cancer.gov). The established cell lines HS-SY-2 (RRID:CVCL_8719), MPNST, and SYO-1 (RRID:CVCL_7146) were obtained from the Sloan Kettering Institute. The alveolar soft parts sarcoma cell line ASPS-1 (RRID:CVCL_S738) was established at the NCI and grown from internal seed stocks. The following established cell lines were purchased from the American Type Culture Collection (ATCC, Manassas, VA): G-401 (ATCC, cat. CRL-1441, RRID:CVCL_0270), SW982 (ATCC, cat. HTB-93, RRID:CVCL_1734), VA-ES-BJ (ATCC, cat. CRL-2138, RRID:CVCL_1785), NCI-H719 (ATCC, cat. CRL-5837, RRID:CVCL_1582), NCI-H196 (ATCC, cat. CRL-5823, RRID:CVCL_1509), NCI-H841 (ATCC, cat. CRL-5845, RRID:CVCL_1595), NCI-H1618 (ATCC, cat. CRL-5879, RRID:CVCL_1480), NCI-H1876 (ATCC, cat. CRL-5902, RRID:CVCL_1503), DMS 114 (ATCC, cat. CRL-2066; RRID:CVCL_1174), NCI-H211 (ATCC, cat. CRL-5824; RRID:CVCL_1529), and SW 1271 (ATCC, cat. CRL-2177, RRID:CVCL_1716). The small cell lung cancer cell line COR-L88 was purchased from Sigma-Aldrich (cat. 92031917-1VL, RRID:CVCL_1141). The non-small cell lung cancer cell lines NCI-H226 (RRID:CVCL_1544) and NCI-H322M (RRID:CVCL_1557) were established at the NCI and grown from internal seed stocks. Pooled donor human umbilical vein endothelial cells (HUVEC, Lonza, cat. CC-2519) and human mesenchymal stem cells (hMSC, Lonza, cat. PT-2501) were purchased from Lonza (Walkersville, MD).\nCell Culture. All cells were maintained in an incubator at 37 degrees C and 5% CO2 with 95% humidity. […]", "note": "Values joined by “and” are separate entries in the source; they are usually repeats but may differ in a detail not shown here. Equal values may be shown once. Active and inactive are the calls of the source. Rule for the calls: active = viability on the fitted dose curve at most 10% of control; inactive = the rest.", "data": [{"smiles": "CC(C)n1c(=O)n(C)c2cnc3cc(F)c(-c4ccc(OCCCN5CCCCC5)nc4)cc3c21", "note": "+ Cn1nnc2c(C(N)=O)ncn2c1=O", "values": [{"measurement": "IC50", "setting": "curve of first compound, second compound 1 µM", "result": 411, "unit": "nM"}, {"measurement": "IC50", "setting": "curve of first compound, second compound 3.16 µM", "result": 517, "unit": "nM"}, {"measurement": "IC50", "setting": "curve of first compound, second compound 10 µM", "result": 571, "unit": "nM"}, {"measurement": "IC50", "setting": "curve of first compound, second compound 31.6 µM", "result": 623, "unit": "nM"}, {"measurement": "IC50", "setting": "curve of first compound, second compound 100 µM", "result": 176, "unit": "nM"}, {"measurement": "viability, T/C", "setting": "second compound 1 µM, first compound 0.0316 µM", "result": 87, "unit": "%"}, {"measurement": "viability, T/C", "setting": "second compound 1 µM, first compound 0.1 µM", "result": 68.1, "unit": "%"}, {"measurement": "viability, T/C", "setting": "second compound 1 µM, first compound 0.316 µM", "result": 51.6, "unit": "%"}, {"measurement": "viability, T/C", "setting": "second compound 1 µM, first compound 1 µM", "result": 39.2, "unit": "%"}, {"measurement": "viability, T/C", "setting": "second compound 1 µM, first compound 3.16 µM", "result": 27.7, "unit": "%"}, {"measurement": "viability, T/C", "setting": "second compound 1 µM, first compound 10 µM", "result": 12.1, "unit": "%"}, {"measurement": "viability, T/C", "setting": "second compound 3.16 µM, first compound 0.0316 µM", "result": 88.9, "unit": "%"}, {"measurement": "viability, T/C", "setting": "second compound 3.16 µM, first compound 0.1 µM", "result": 70.7, "unit": "%"}, {"measurement": "viability, T/C", "setting": "second compound 3.16 µM, first compound 0.316 µM", "result": 54.7, "unit": "%"}, {"measurement": "viability, T/C", "setting": "second compound 3.16 µM, first compound 1 µM", "result": 42.6, "unit": "%"}, {"measurement": "viability, T/C", "setting": "second compound 3.16 µM, first compound 3.16 µM", "result": 29.6, "unit": "%"}, {"measurement": "viability, T/C", "setting": "second compound 3.16 µM, first compound 10 µM", "result": 12.8, "unit": "%"}, {"measurement": "viability, T/C", "setting": "second compound 10 µM, first compound 0.0316 µM", "result": 85.5, "unit": "%"}, {"measurement": "viability, T/C", "setting": "second compound 10 µM, first compound 0.1 µM", "result": 68.6, "unit": "%"}, {"measurement": "viability, T/C", "setting": "second compound 10 µM, first compound 0.316 µM", "result": 55.4, "unit": "%"}, {"measurement": "viability, T/C", "setting": "second compound 10 µM, first compound 1 µM", "result": 41.6, "unit": "%"}, {"measurement": "viability, T/C", "setting": "second compound 10 µM, first compound 3.16 µM", "result": 36.1, "unit": "%"}, {"measurement": "viability, T/C", "setting": "second compound 10 µM, first compound 10 µM", "result": 11.4, "unit": "%"}, {"measurement": "viability, T/C", "setting": "second compound 31.6 µM, first compound 0.0316 µM", "result": 84.8, "unit": "%"}, {"measurement": "viability, T/C", "setting": "second compound 31.6 µM, first compound 0.1 µM", "result": 72.5, "unit": "%"}, {"measurement": "viability, T/C", "setting": "second compound 31.6 µM, first compound 0.316 µM", "result": 58.7, "unit": "%"}, {"measurement": "viability, T/C", "setting": "second compound 31.6 µM, first compound 1 µM", "result": 42.8, "unit": "%"}, {"measurement": "viability, T/C", "setting": "second compound 31.6 µM, first compound 3.16 µM", "result": 29.7, "unit": "%"}, {"measurement": "viability, T/C", "setting": "second compound 31.6 µM, first compound 10 µM", "result": 12.8, "unit": "%"}, {"measurement": "viability, T/C", "setting": "second compound 100 µM, first compound 0.0316 µM", "result": 62.4, "unit": "%"}, {"measurement": "viability, T/C", "setting": "second compound 100 µM, first compound 0.1 µM", "result": 55.2, "unit": "%"}, {"measurement": "viability, T/C", "setting": "second compound 100 µM, first compound 0.316 µM", "result": 43.2, "unit": "%"}, {"measurement": "viability, T/C", "setting": "second compound 100 µM, first compound 1 µM", "result": 35.3, "unit": "%"}, {"measurement": "viability, T/C", "setting": "second compound 100 µM, first compound 3.16 µM", "result": 25.9, "unit": "%"}, {"measurement": "viability, T/C", "setting": "second compound 100 µM, first compound 10 µM", "result": 10.2, "unit": "%"}]}, {"smiles": "O=C(c1cc(Cc2n[nH]c(=O)c3ccccc23)ccc1F)N1CCN(C(=O)C2CC2)CC1", "values": [{"measurement": "viability, T/C", "setting": "compound 0.0949 µM", "result": "87% and 103% and 107%"}, {"measurement": "viability, T/C", "setting": "compound 0.3 µM", "result": "76% and 89.7% and 106%"}, {"measurement": "viability, T/C", "setting": "compound 0.949 µM", "result": "84.4% and 76.2% and 100%"}, {"measurement": "viability, T/C", "setting": "compound 3 µM", "result": "72.1% and 55.2% and 76.5%"}, {"measurement": "viability, T/C", "setting": "compound 9.49 µM", "result": "64% and 33.9% and 18.2%"}, {"measurement": "viability, T/C", "setting": "compound 30 µM", "result": "66.7% and 19.1% and 12.6%"}, {"measurement": "IC50", "setting": "curve of compound", "result": "> 30000 nM and 3960 nM and 5070 nM"}]}, {"smiles": "CC(C)n1c(=O)n(C)c2cnc3cc(F)c(-c4ccc(OCCCN5CCCCC5)nc4)cc3c21", "values": [{"measurement": "viability, T/C", "setting": "compound 0.0316 µM", "result": "100% and 85.6% and 104%"}, {"measurement": "viability, T/C", "setting": "compound 0.1 µM", "result": "98.1% and 49.6% and 104%"}, {"measurement": "viability, T/C", "setting": "compound 0.316 µM", "result": "103% and 53.3% and 100%"}, {"measurement": "viability, T/C", "setting": "compound 1 µM", "result": "103% and 47.4% and 104%"}, {"measurement": "viability, T/C", "setting": "compound 3.16 µM", "result": "107% and 28.5% and 105%"}, {"measurement": "viability, T/C", "setting": "compound 10 µM", "result": "102% and 11.4% and 93.3%"}]}, {"smiles": "COc1ccc([C@@H](O)c2cc(-c3ncnc4cc(N5CCOCC5)ccc34)c(F)cc2Cl)nn1", "values": [{"measurement": "viability, T/C", "setting": "compound 0.0316 µM", "result": "105% and 98% and 103%"}, {"measurement": "viability, T/C", "setting": "compound 0.1 µM", "result": "104% (2×) and 95.2%"}, {"measurement": "viability, T/C", "setting": "compound 0.316 µM", "result": "102% and 74.6% and 96.1%"}, {"measurement": "viability, T/C", "setting": "compound 1 µM", "result": "97.6% and 98%"}, {"measurement": "outcome", "setting": "compound 1 µM", "result": "inactive"}, {"measurement": "viability, T/C", "setting": "compound 3.16 µM", "result": "81.2% and 26.2% and 77.6%"}, {"measurement": "IC50", "setting": "curve of compound", "result": "5500 nM and 1120 nM and 6510 nM"}]}, {"smiles": "Cn1ncnc1[C@H]1c2n[nH]c(=O)c3cc(F)cc(c23)N[C@@H]1c1ccc(F)cc1", "values": [{"measurement": "viability, T/C", "setting": "compound 0.00949 µM", "result": "88.9% and 68.4% and 87.4%"}, {"measurement": "viability, T/C", "setting": "compound 0.03 µM", "result": "73.5% and 65.7% and 71.3%"}, {"measurement": "viability, T/C", "setting": "compound 0.0949 µM", "result": "52.3% and 49.7% and 39.4%"}, {"measurement": "viability, T/C", "setting": "compound 0.3 µM", "result": "28.3% and 25.2% and 21.1%"}, {"measurement": "viability, T/C", "setting": "compound 3 µM", "result": "0.28% and 7.28% and 3.57%"}, {"measurement": "IC50", "setting": "curve of compound", "result": "104 nM and 84.6 nM and 67.4 nM"}]}]}
